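Where inhibition never reached the appropriate level, the endpoint shown equals the highest concentration tested. Otherwise, values were interpolated linearly from a five-concentration, 48-hour dose response in 96-well plates. The concentration for 50% growth inhibition is given as GI50. TGI marks complete inhibition of growth.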
What was measured:
Experiment in all cases: NCI-60 cell line screen, 48 h
[1] = test system: 786-0 renal
[2] = test system: A498 renal
[3] = test system: A549 NSCLC
[4] = test system: ACHN renal
[5] = test system: BT-549 breast
[6] = test system: CAKI-1 renal
[7] = test system: CCRF-CEM leukemia
[8] = test system: COLO 205 colon
[9] = test system: DU-145 prostate
[10] = test system: EKVX NSCLC
[11] = test system: HCC-2998 colon
[12] = test system: HCT-116 colon
[13] = test system: HCT-15 colon
[14] = test system: HL-60(TB) leukemia
[15] = test system: HOP-62 NSCLC
[16] = test system: HOP-92 NSCLC
[17] = test system: HS 578T breast
[18] = test system: HT29 colon
[19] = test system: IGROV1 ovarian
[20] = test system: K-562 leukemia
[21] = test system: KM12 colon
[22] = test system: LOX IMVI melanoma
[23] = test system: M14 melanoma
[24] = test system: MALME-3M melanoma
[25] = test system: MCF7 breast
[26] = test system: MDA-MB-435
[27] = test system: MDA-MB-468 breast
[28] = test system: MOLT-4 leukemia
[29] = test system: NCI-H226 lung
[30] = test system: NCI-H23 lung
[31] = test system: NCI-H460 lung
[32] = test system: NCI-H522 lung
[33] = test system: NCI/ADR-RES ovarian
[34] = test system: OVCAR-3 ovarian
[35] = test system: OVCAR-4 ovarian
[36] = test system: OVCAR-5 ovarian
[37] = test system: OVCAR-8 ovarian
[38] = test system: PC-3 prostate
[39] = test system: RPMI-8226 leukemia
[40] = test system: RXF 393 renal
[41] = test system: SF-268 CNS
[42] = test system: SF-295 CNS
[43] = test system: SF-539 CNS
[44] = test system: SK-MEL-28 melanoma
[45] = test system: SK-MEL-5 melanoma
[46] = test system: SK-OV-3 ovarian
[47] = test system: SN12C renal
[48] = test system: SNB-19 CNS
[49] = test system: SR leukemia
[50] = test system: SW-620 colon
[51] = test system: T-47D breast
[52] = test system: TK-10 renal
[53] = test system: U251 CNS
[54] = test system: UACC-257 melanoma
[55] = test system: UACC-62 melanoma
[56] = test system: MDA-MB-231 breast
[57] = test system: SK-MEL-2 melanoma
[58] = test system: UO-31 renal

O=C(Nc1ccc(I)cc1)Nc1nc2ccc([N+](=O)[O-])cc2s1
GI50 [1]: 3.5 µM | TGI [1]: 13.4 µM | GI50 [2]: 2.83 µM | TGI [2]: 9.14 µM | GI50 [3]: 3.54 µM | TGI [3]: 13.5 µM | GI50 [4]: 3.25 µM | TGI [4]: 10.4 µM | GI50 [5]: 2.31 µM | TGI [5]: 7.29 µM | GI50 [6]: 3.32 µM | TGI [6]: 12.1 µM | GI50 [7]: 3.4 µM | TGI [7]: 10.8 µM | GI50 [8]: 2.64 µM | TGI [8]: 6.52 µM | GI50 [9]: 3.99 µM | TGI [9]: 14 µM | GI50 [10]: 3.08 µM | TGI [10]: 10.9 µM | GI50 [11]: 3.59 µM | TGI [11]: 12.3 µM | GI50 [12]: 2.66 µM | TGI [12]: 11 µM | GI50 [13]: 3.2 µM | TGI [13]: 11.2 µM | GI50 [14]: 2.41 µM | TGI [14]: 6.05 µM | GI50 [15]: 3.44 µM | TGI [15]: 12.5 µM | GI50 [16]: 2.03 µM | TGI [16]: 6.28 µM | GI50 [17]: 3.01 µM | TGI [17]: 9.9 µM | GI50 [18]: 3.32 µM | TGI [18]: 13.4 µM | GI50 [19]: 3.67 µM | TGI [19]: 14 µM | GI50 [20]: 3.23 µM | TGI [20]: 10.9 µM | GI50 [21]: 3.36 µM | TGI [21]: 11.6 µM | GI50 [22]: 3.49 µM | TGI [22]: 11.7 µM | GI50 [23]: 3.62 µM | TGI [23]: 13.2 µM | GI50 [24]: 2.41 µM | TGI [24]: 6.89 µM | GI50 [25]: 2.59 µM | TGI [25]: 7.79 µM | GI50 [26]: 3.47 µM | TGI [26]: 12.5 µM | GI50 [27]: 2.83 µM | TGI [27]: 7.4 µM | GI50 [28]: 2.57 µM | TGI [28]: 7.12 µM | GI50 [29]: 3.45 µM | TGI [29]: 13 µM | GI50 [30]: 2.23 µM | TGI [30]: 5.85 µM | GI50 [31]: 3.21 µM | TGI [31]: 10.4 µM | GI50 [32]: 2.29 µM | TGI [32]: 6.75 µM | GI50 [33]: 2.92 µM | TGI [33]: 9.27 µM | GI50 [34]: 3.48 µM | TGI [34]: 12.6 µM | GI50 [35]: 3.69 µM | TGI [35]: 14.5 µM | GI50 [36]: 4.11 µM | TGI [36]: 15.9 µM | GI50 [37]: 3.48 µM | TGI [37]: 11.8 µM | GI50 [38]: 3.16 µM | TGI [38]: 11.4 µM | GI50 [39]: 2.07 µM | TGI [39]: 5.23 µM | GI50 [40]: 3.53 µM | TGI [40]: 12.9 µM | GI50 [41]: 3.63 µM | TGI [41]: 14.6 µM | GI50 [42]: 2.93 µM | TGI [42]: 10.6 µM | GI50 [43]: 3.01 µM | TGI [43]: 9.39 µM | GI50 [44]: 3.19 µM | TGI [44]: 10.7 µM | GI50 [45]: 1.93 µM | TGI [45]: 3.9 µM | GI50 [46]: 2.93 µM | TGI [46]: 9.16 µM | GI50 [47]: 2.86 µM | TGI [47]: 9.42 µM | GI50 [48]: 3.44 µM | TGI [48]: 12.9 µM | GI50 [49]: 2.24 µM | TGI [49]: 5.84 µM | GI50 [50]: 3.56 µM | TGI [50]: 13.1 µM | GI50 [51]: 2.8 µM | TGI [51]: 8.71 µM | GI50 [52]: 3.67 µM | TGI [52]: 11.7 µM | GI50 [53]: 3.23 µM | TGI [53]: 10.7 µM | GI50 [54]: 2.83 µM | TGI [54]: 8.24 µM | GI50 [55]: 2.99 µM | TGI [55]: 10.3 µM

COc1ccc2c3nc4cc(C)c(C)cc4nc3n(CCN(C)C)c2c1
GI50 [1]: 2.73 µM | TGI [1]: 10.5 µM | GI50 [2]: 11 µM | TGI [2]: 25.6 µM | GI50 [3]: 1.34 µM | TGI [3]: 3.34 µM | GI50 [4]: 1.38 µM | TGI [4]: 4.19 µM | GI50 [5]: 2.94 µM | TGI [5]: 16.4 µM | GI50 [6]: 0.981 µM | TGI [6]: 6.65 µM | GI50 [7]: 3.47 µM | TGI [7]: 13.5 µM | GI50 [8]: 5.93 µM | TGI [8]: 20.8 µM | GI50 [9]: 2.74 µM | TGI [9]: 12 µM | GI50 [10]: 3.34 µM | TGI [10]: 15.5 µM | GI50 [11]: 1.31 µM | TGI [11]: 3.44 µM | GI50 [12]: 1.27 µM | TGI [12]: 2.74 µM | GI50 [13]: 1.31 µM | TGI [13]: 3.54 µM | GI50 [14]: 1.18 µM | TGI [14]: 2.95 µM | GI50 [15]: 2.53 µM | TGI [15]: 13 µM | GI50 [16]: 0.452 µM | TGI [16]: 6.02 µM | GI50 [17]: 7.19 µM | TGI [17]: 32.5 µM | GI50 [18]: 3.02 µM | TGI [18]: 12.6 µM | GI50 [19]: 1.46 µM | TGI [19]: 13.3 µM | GI50 [20]: 1.44 µM | TGI [20]: 4.89 µM | GI50 [21]: 2.31 µM | TGI [21]: 11.4 µM | GI50 [22]: 1.09 µM | TGI [22]: 2.28 µM | GI50 [23]: 1.32 µM | TGI [23]: 2.95 µM | GI50 [24]: 1.45 µM | TGI [24]: 3.28 µM | GI50 [25]: 1.02 µM | TGI [25]: 2.95 µM | GI50 [56]: 1.79 µM | TGI [56]: 9.32 µM | GI50 [26]: 2.5 µM | TGI [26]: 11 µM | GI50 [27]: 1.17 µM | TGI [27]: 3.18 µM | GI50 [28]: 2.2 µM | TGI [28]: 7.29 µM | GI50 [29]: 1.58 µM | TGI [29]: 3.81 µM | GI50 [30]: 2.51 µM | TGI [30]: 11.5 µM | GI50 [31]: 1.21 µM | TGI [31]: 3.2 µM | GI50 [32]: 0.665 µM | TGI [32]: 7.87 µM | GI50 [33]: 2.28 µM | TGI [33]: 12 µM | GI50 [34]: 2.24 µM | TGI [34]: 5.23 µM | GI50 [35]: 2.82 µM | TGI [35]: 16.2 µM | GI50 [36]: 2.96 µM | TGI [36]: 12.6 µM | GI50 [37]: 1.43 µM | TGI [37]: 3.47 µM | GI50 [38]: 1.58 µM | TGI [38]: 12.9 µM | GI50 [39]: 1.81 µM | TGI [39]: 4.85 µM | GI50 [40]: 2.38 µM | TGI [40]: 9.71 µM | GI50 [41]: 3.41 µM | TGI [41]: 16.2 µM | GI50 [42]: 1.65 µM | TGI [42]: 5.55 µM | GI50 [43]: 1.49 µM | TGI [43]: 2.98 µM | GI50 [57]: 3.88 µM | TGI [57]: 15.8 µM | GI50 [44]: 3.23 µM | TGI [44]: 11.9 µM | GI50 [45]: 1.5 µM | TGI [45]: 2.98 µM | GI50 [46]: 3.58 µM | TGI [46]: 16.2 µM | GI50 [47]: 1.54 µM | TGI [47]: 5.96 µM | GI50 [48]: 3.42 µM | TGI [48]: 16.3 µM | GI50 [49]: 1.32 µM | TGI [49]: 5.33 µM | GI50 [50]: 1.27 µM | TGI [50]: 8.47 µM | GI50 [51]: 1.78 µM | TGI [51]: 13.6 µM | GI50 [52]: 6.87 µM | TGI [52]: 19 µM | GI50 [53]: 1.39 µM | TGI [53]: 3.89 µM | GI50 [54]: 3.97 µM | TGI [54]: 15.1 µM | GI50 [55]: 1.61 µM | TGI [55]: 5.2 µM | GI50 [58]: 0.542 µM | TGI [58]: 7.76 µM
